This note sets out measurements from ChEMBL document CHEMBL4177533, “Identification and Synthesis of Mycalol Analogues with Improved Potency against Anaplastic Thyroid Carcinoma Cell Lines” (J Nat Prod, 2017).

A short description of assay [1]: Cytotoxicity against human FRO cells assessed as reduction in cell viability incubated for 72 hrs by Cell-titer 96 aqueous one assay. Format: functional, cell-based.
Assay [2] is described as follows: Cytotoxicity against human FRO cells assessed as reduction in cell viability in presence of shHMGA1 incubated for 72 hrs by Cell-titer 96 aqueous one assay. Format: functional, cell-based.
The nature of assay [3]: Cytotoxicity against human ACT1 cells assessed as reduction in cell viability incubated for 72 hrs by Cell-titer 96 aqueous one assay. Format: functional, cell-based.
Assay [4] concerns 8505C. Description: Cytotoxicity against human 8505C cells assessed as reduction in cell viability incubated for 72 hrs by Cell-titer 96 aqueous one assay. Format: functional, cell-based.
Assay [5] is described as follows: Potency index, ratio of IC50 for mycalol to IC50 for test compound against human FRO cells assessed as reduction in cell viability incubated for 72 hrs by Cell-titer 96 aqueous one assay. Format: functional.
The nature of assay [6]: Cytotoxicity against human FRTL5 cells assessed as reduction in cell viability incubated for 72 hrs by Cell-titer 96 aqueous one assay. The class given is cell-based. As to conditions: FRTL-5, 72 h.

Turning to `CCCCC[C@H](CCCCCCCCCC[C@H](O)[C@H](O)CC[C@H](O)[C@H](O)CCOC[C@H](O)CO)OC(C)=O`, in assay [1], the IC50 came to 16 µM.

As for `CCCCCCC[C@H](CCCCCCCCCC[C@H](O)[C@H](O)CC[C@H](O)[C@H](O)CCOC[C@H](O)CO)OC(=O)C[C@H](C)O`, the IC50 in assay [1] was 16 µM.

Take `CCCCCCCC[C@H](CCCCCCCCCC[C@H](O)[C@H](O)CC[C@H](O)[C@H](O)CCOC[C@H](O)CO)OC(=O)C[C@H](C)O`: the 50% inhibitory concentration (IC50) in assay [1] was determined as 20 µM.

For the compound `CCCCCCCCC[C@H](CCCCCCCCCC[C@H](O)[C@H](O)CC[C@H](O)[C@H](O)CCOC[C@H](O)CO)OC(=O)C[C@H](C)O`, in assay [1], the IC50 was determined as 4.7 µM.

`CCCCCCC[C@H](CCCCCCCCCC[C@H](O)[C@H](O)CC[C@H](O)[C@H](O)CCOC[C@H](O)CO)OC(C)=O` (stereo in doubt; form 1): the IC50 stood at 2.3 µM in assay [1]; 3.3 µM in assay [2] (Homo sapiens, 72 h); 4.8 µM in assay [3] (Homo sapiens, 72 h); 2.6 µM in assay [4] (Homo sapiens, 8505C, 72 h). The “Ratio IC50” value in assay [5] is given as 6.

Consider `CCCCCCC[C@H](CCCCCCCCCC[C@H](O)[C@H](O)CC[C@H](O)[C@H](O)CCOC[C@H](O)CO)OC(C)=O` (stereo in doubt; form 2), for which the IC50 in assay [2] was 3.4 µM; in assay [3], 5.1 µM; in assay [4] (8505c), 2.1 µM; in assay [6], > 40 µM.

As usually defined, the IC50 is the concentration at which inhibition is half-maximal.
